Laboratory results reported in ChEMBL document CHEMBL4190263, “Bacterial Production of a Pederin Analogue by a Free-Living Marine Alphaproteobacterium” (2017).

Key:
Assay type in all cases: functional
[1] = tested on: A549; experiment: Antiproliferative activity against human A549 cells assessed as growth inhibition after 72 hrs by SRB assay; conditions: A549, 72 h
[2] = tested on: HT-29; experiment: Antiproliferative activity against human HT-29 cells assessed as growth inhibition after 72 hrs by SRB assay; conditions: HT-29, 72 h
[3] = tested on: MDA-MB-231; experiment: Antiproliferative activity against human MDA-MB-231 cells assessed as growth inhibition after 72 hrs by SRB assay; conditions: MDA-MB-231, 72 h
[4] = tested on: PSN1; experiment: Antiproliferative activity against human PSN1 cells assessed as growth inhibition after 72 hrs by SRB assay; conditions: PSN1, 72 h

Measured: GI50

C=C1C[C@](OC)([C@H](O)C(=O)N[C@@H](OC)[C@@H]2C[C@@H](O)C(C)(C)[C@@H](C[C@@H](CO)OC)O2)O[C@H](C)[C@@H]1C
2 to 2.9 nM: all assays above
